The values that follow come from ChEMBL document CHEMBL1135839, “Design and synthesis of novel benzofurans as a new class of antifungal agents targeting fungal N-myristoyltransferase. Part 2” (Bioorg Med Chem Lett, 2002).

Series [1] concerns the target Candida albicans N-myristoyltransferase (Candida albicans). Nature of the series: Inhibitory activity against Candida albicans N-Myristoyltransferase (CaNmt) assessed as inhibitory concentration using substrate peptide and myristotyl-CoA at 0.5 uM.
The subject of series [2] is Candida albicans. Nature of the series: Antifungal activity expressed as inhibitory concentration against Candida albicans CY1002 in calf serum. Format: functional, organism-based.
Series [3] concerns the target T1, Peptide N-myristoyltransferase (Homo sapiens, UniProt P30419+O60551).
T1 sequence (P30419 whole entry): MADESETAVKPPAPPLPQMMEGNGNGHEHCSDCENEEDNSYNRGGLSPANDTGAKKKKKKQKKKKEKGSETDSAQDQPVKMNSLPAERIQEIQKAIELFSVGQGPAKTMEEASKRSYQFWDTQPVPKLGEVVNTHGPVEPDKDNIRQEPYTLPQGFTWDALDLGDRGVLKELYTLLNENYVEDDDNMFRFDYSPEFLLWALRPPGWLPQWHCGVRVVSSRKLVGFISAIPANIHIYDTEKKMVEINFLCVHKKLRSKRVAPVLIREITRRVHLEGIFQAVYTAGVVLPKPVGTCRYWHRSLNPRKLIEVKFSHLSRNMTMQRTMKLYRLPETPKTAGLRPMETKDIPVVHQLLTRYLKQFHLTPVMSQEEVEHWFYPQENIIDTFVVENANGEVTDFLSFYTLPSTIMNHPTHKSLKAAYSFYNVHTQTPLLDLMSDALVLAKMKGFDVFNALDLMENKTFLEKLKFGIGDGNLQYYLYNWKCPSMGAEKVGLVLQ
T1 sequence (O60551 whole entry): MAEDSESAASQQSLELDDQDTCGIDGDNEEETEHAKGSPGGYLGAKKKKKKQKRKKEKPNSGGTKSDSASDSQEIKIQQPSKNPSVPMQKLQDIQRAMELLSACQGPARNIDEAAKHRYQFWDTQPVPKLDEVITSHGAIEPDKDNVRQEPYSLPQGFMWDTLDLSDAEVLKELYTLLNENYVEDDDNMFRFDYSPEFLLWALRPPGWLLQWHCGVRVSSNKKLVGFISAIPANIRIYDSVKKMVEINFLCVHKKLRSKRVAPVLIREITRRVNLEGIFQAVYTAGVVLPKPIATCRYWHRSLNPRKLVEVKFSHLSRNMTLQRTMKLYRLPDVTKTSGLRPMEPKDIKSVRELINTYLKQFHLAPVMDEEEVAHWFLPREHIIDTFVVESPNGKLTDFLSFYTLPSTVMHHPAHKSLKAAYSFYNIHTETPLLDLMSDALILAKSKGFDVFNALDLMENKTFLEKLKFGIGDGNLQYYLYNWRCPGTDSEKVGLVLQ
Nature of the series: Inhibitory activity against human N-Myristoyltransferase (HsNmt) assessed as inhibitory concentration using substrate peptide and myristotyl-CoA at 0.5 uM. Format: protein assay.

Series [4] can be described thus: Half life of compound determined after intravenous administration to rat. Type of series: ADME, organism-based. The settings on record: in vivo.
The nature of series [5]: Plasma concentration expressed as area under curve after intravenous administration was determined in rat. Format: ADME, organism-based.
Series [6] concerns Candida albicans. Nature of the series: Antifungal activity expressed as inhibitory concentration against Candida albicans CY1002 in YNBPB medium. Format: functional, organism-based.
For series [7], the target named is Candida albicans N-myristoyltransferase (Candida albicans). Nature of the series: Inhibitory activity against Candida albicans N-Myristoyltransferase (Nmt).
Series [8] shares this target. Nature of the series: Inhibitory activity against Candida albicans (Nmt) assessed as inhibitory concentration (nM).
The subject of a further series is Rattus norvegicus. Nature of the series: Effective dose required against Candida albicans for 50% survival on intravenous administration in rats. Type of series: functional.
Series [9] deals with Candida albicans N-myristoyltransferase (Candida albicans). Nature of the series: Inhibitory activity against Candida albicans (Nmt) assessed as inhibitory concentration.
In series [10] the test system is Candida albicans. Nature of the series: Antifungal activity expressed as inhibitory concentration against Candida albicans in calf serum. Format: functional, organism-based.

The structures appear in SMILES notation. pIC50: −log10 of the molar value.

Broadly, the IC50 is the point on the concentration scale where inhibition reaches its midpoint. The pIC50 is −log10 of the IC50, conventionally taken in molar units. One may read the half-life as the time needed for the level to fall by half in the phase considered. Low values mean fast loss, high ones slow loss. Broadly, the AUC is concentration integrated over time. Higher therefore signals more exposure. `Cc1c(COc2cccc(F)c2)oc2cccc(OCCCNCc3cccnc3)c12`: the half-maximal inhibitory concentration (IC50) in series [1] is 110 nM; in series [3], above 110000 nM. The pIC50 in the series with Candida albicans [2] is 5.48; in the series with Candida albicans [6], 6.96. The half-life in series [4] was 1.5 h. Moreover, the AUC in [5] was 370 ng·h/mL.

Regarding `Cc1c(C(=O)Nc2ccccc2)oc2cccc(OCCCNCc3cccnc3)c12`, the IC50 in series [1] was 2200 nM; in series [3], above 480000 nM. Moreover, the half-life in series [4] was 0.9 h. Moreover, the AUC in series [5] amounted to 240 ng·h/mL. In addition, the pIC50 in the series on Candida albicans [6] is 4.92.

Take `Cc1c(COc2cccc(F)c2F)oc2cccc(OCCCNCc3cccnc3)c12`: the pIC50 with Candida albicans [2] was 6.24; in the series with Candida albicans [6], 7.10. Moreover, in series [4], the half-life was 1.9 h. The compound further showed an AUC in series [5] of 500 ng·h/mL.

Turning to `Cc1c(COc2ccc(C#N)cc2)oc2cccc(OCCCNCc3cccnc3)c12`, the IC50 in [1] is 9.4 nM; in series [3], above 460000 nM. For the same compound, the pIC50 in the series with Candida albicans [2] was 5.85; in [7] it was 8.03; in the series on Candida albicans [6], 6.80. The half-life in [4] is 1.2 h. Moreover, in [5], the AUC is 340 ng·h/mL.

As to `Cc1c(COc2ccc(F)cc2)oc2cccc(OCCCNCc3cccnc3)c12`, the IC50 in series [1] is 5.2 nM; in series [3], 67000 nM. The results for the negative logarithm of the IC50 (pIC50) (with Candida albicans [2]; in series [8]; in the series on Candida albicans [6]) were 6.15, 8.28 and 7.68, respectively. In series [4], this compound gave a half-life of 1.9 h. The compound also came in with an AUC in series [5] of 340 ng·h/mL.

Usually ED50 stands for the midpoint of the dose-response relation. A higher ED50 goes with weaker potency. `Cc1c(COc2ccc(Br)cc2F)oc2cccc(OCCCNCc3cccnc3)c12`: the IC50 in series [1] is 28 nM; in series [3] it was above 400000 nM. Also, the pIC50 with Candida albicans [2] is 5.89; in the series with Candida albicans [6], 7.13. This compound showed a half-life in [4] of 3.6 h. Besides, the ED50 in the series on Rattus norvegicus was above 30 mg/kg. In series [5], the AUC came out at 360 ng·h/mL.

With `CCOC(=O)c1oc2cccc(OCCCNCc3cccnc3)c2c1C`, the IC50 in [3] was above 450000 nM. Also, in series [4], the half-life was 0.4 h. The compound also came in with an AUC in series [5] of 330 ng·h/mL.

`Cc1c(CCc2ccccc2)oc2cccc(OCCCNCc3cccnc3)c12`: the figures for the IC50 in series [1] and in [3] were 1200 nM and 12000 nM, respectively. Besides, the pIC50 was below 3.62 with Candida albicans [2] and 4.89 in the series with Candida albicans [6]. Moreover, the half-life in [4] was 1.1 h. This compound also registered an AUC in series [5] of 290 ng·h/mL.

Regarding `Cc1c(COc2ccc(F)cc2F)oc2cccc(OCCCNCc3cccnc3)c12`, the figures for the IC50 in series [1] and in series [3] were 7.5 nM and above 450000 nM, respectively. In addition, the pIC50 in the series on Candida albicans [2] was 6.47; in series [8], 8.12; in the series on Candida albicans [6] it was 7.52. In series [4], the half-life is 1.6 h. This compound also displayed an ED50 in the series on Rattus norvegicus of 7.1 mg/kg. Also, the AUC in series [5] is 420 ng·h/mL.

Turning to `Cc1c(COc2ccccc2)oc2cccc(OCCCNCc3cccnc3)c12`, the results for the IC50 in series [1] and in series [3] were 72 nM and 77000 nM, respectively. This compound also had a half-life in series [4] of 1.9 h. The AUC in series [5] came to 670 ng·h/mL. The compound also gave a negative logarithm of the IC50 (pIC50) in the series on Candida albicans [6] of 6.43.

Regarding `Cc1c(COc2ccc(F)c(F)c2F)oc2cccc(OCCCNCc3cccnc3)c12`, the values for the pIC50 in the series on Candida albicans [2] and in the series on Candida albicans [6] were 6.48 and 7.46, respectively. In series [4], this compound had a half-life of 2 h. In addition, in the series on Rattus norvegicus, the ED50 was determined as 7.1 mg/kg. Moreover, the AUC in series [5] is 330 ng·h/mL.

As for `Cc1c(COc2ccccc2F)oc2cccc(OCCCNCc3cccnc3)c12`, the results for the IC50 in series [1] and in series [3] were 8.3 nM and above 470000 nM, respectively. Moreover, the pIC50 with Candida albicans [2] is 6.22; in series [9] it was 8.08; in the series with Candida albicans [6], 7.40. Also, in [4], the half-life is 1.6 h. For the same compound, the AUC in [5] came to 560 ng·h/mL.

Take `Cc1c(COc2ccccc2C#N)oc2cccc(OCCCNCc3cccnc3)c12`: the IC50 in series [1] was 17 nM; in series [3] it was 19000 nM. Also, the pIC50 was 5.48 in the series with Candida albicans [2] and 5.92 in the series with Candida albicans [6]. Further, the half-life in series [4] was 0.5 h. This compound came in with an AUC in [5] of 280 ng·h/mL.

For the compound `Cc1c(COc2ccc(Cl)cc2)oc2cccc(OCCCNCc3cccnc3)c12`, the IC50 is 73 nM in [1] and above 110000 nM in series [3]. For the same compound, the pIC50 is 5.18 in the series on Candida albicans [2] and 6.04 with Candida albicans [6]. The half-life in series [4] is 2.4 h. The same compound registered an AUC in series [5] of 330 ng·h/mL.

As to `Cc1c(CSc2ccccc2)oc2cccc(OCCCNCc3cccnc3)c12`, the pIC50 in the series on Candida albicans [2] is 3.74; in the series with Candida albicans [6] it was 4.96. This compound also gave a half-life in series [4] of 1.4 h. Further, the AUC in [5] worked out at 390 ng·h/mL.

`OC(Cn1cncn1)(Cn1cncn1)c1ccc(F)cc1F` [FLUCONAZOLE]: the pIC50 in the series with Candida albicans [2] and in the series with Candida albicans [10] was 6.30 each time. Further, the half-life in [4] was 4 h. This compound also showed an AUC in [5] of 19.6 ng·h/mL.
